Reference: patent publication US20140128357A1, “METHODS OF PRODUCING AND USING BRASSINOSTEROIDS TO PROMOTE GROWTH, REPAIR AND MAINTENANCE OF SKELETAL MUSCLE AND SKIN” (Rutgers University, priority 2010, published 2014)
Read-outs that look alike come from different tables or passages of the source.

Legend:
[1] = test system: L6 rat myotubes; assay: Protein degradation, release of acid-soluble [3H]-phenylalanine; format: cell-based; conditions: 10 μM; for Protein degradation (% decrease over control): 4 h
Description: In some aspects, cell culture experiments were carried out. Rat L6 skeletal muscle cell line CRL-1458 was obtained from ATCC (Manassas, Va.). Myoblasts were routinely maintained in Dulbecco's modified Eagle's medium (DMEM) containing 10% FBS and 0.1% penicillin-streptomycin at 37° C. and 5% CO2. Cells were subcultured into 24-well plates for protein synthesis, degradation, and cell viability studies and into 6-well plates for Western blot analyses (Greiner Bio One, Monroe, N.C.). Once cells reached 90% confluence, differentiation was induced by lowering the serum concentration to 2%, and medium was changed every 2 days. […] NIH 3T3 murine embryonic fibroblast cell line (ATCC #CCL-92) was maintained in DMEM and 10% FBS at 37° C. in 5% CO2, and passaged every 3-4 days.
In various aspects, protein degradation is measured to determine the effect of brassinosteroid on a particular protein. All known methods for measuring protein degradation are included in the methods of the disclosure. The effect of brassinosteroids on protein degradation was investigated in fully differentiated myotubes as described by Fawcett et al. (Arch. Biochem. Biophys. 385:357-363, 2001) with slight modifications. Fully differentiated myotubes were incubated for 16 h to allow labeling of cellular proteins with 1.5 μCi/mL [^3H]-phenylalanine. […] The incubation was stopped by placing the cells on ice, and protein in the medium was precipitated with 5% trichloroacetic acid. Specific radioactivity of protein-free phenylalanine was quantified using liquid scintillation counter LS 6500 (Beckman Coulter, Fullerton, Calif.) and normalized to mg of total cell protein determined by BCA protein assay (Pierce Biotechnology, Rockford, Ill.).
The bioactivity of HB and its analogs (as shown in Table 3) were also evaluated by measuring decreases in protein degradation in the L6 rat skeletal muscle cells in vitro. Cells were labeled overnight with [^3H]-phenylalanine and subsequently treated for 4 h in triplicate with vehicle (0.1% ethanol) or test compound (10 μM), and protein degradation was assessed as release of acid-soluble [^3H]-phenylalanine into the media normalized by total protein (Table 3).

[2] = test system: 3T3 Swiss fibroblast monolayers; assay: Scratch wound closure in vitro; format: cell-based, mouse; conditions: for Scratch wound closure at 5 μM, % of control: 12 h (Table 6); for Wound Closure (% over control): 10 μM, 12 h (Table 4)
Description: 3T3 fibroblasts were seeded into 24-well dishes at a concentration of 3×10^5 cells/ml and cultured to nearly confluent cell monolayers. On the day of the experiment, a linear wound was generated in the monolayer with a sterile 100 μl plastic pipette tip and any cellular debris was removed by washing cells once with sterile PBS. Fresh DMEM medium containing vehicle (0.1% ethanol), positive control (0.5% FBS), or various concentrations of the fractions, sub-fractions or pure compounds was added to a set of 3 wells per dose and incubated for 12 h at 37° C. with 5% CO2. Cells were then visualized with 20 μl of 10% methylene blue in PBS for 5 min. Three representative images of the scratched areas from each well were photographed at 0 and 12 h to estimate the scratch wound closure. Images were analyzed using ImageJ program (NIH, Bethesda, Md.) and % wound closure was calculated relative to vehicle control and was reported as wound closure % over control (Table 4). 3T3 Swiss fibroblast were seeded into 24-well tissue culture at a concentration of 3×10^5 cells/ml and cultured to nearly confluent cell monolayers. Then, a linear wound was generated in the monolayer with a sterile 100 μl plastic pipette tip. Any cellular debris was removed by washing with PBS. DMEM medium with vehicle (0.1% ethanol), FBS (1%, positive control), or various concentrations of brassinosteroids were added to a set of 3 wells per dose and incubated for 12 h at 37° C. with 5% CO2. Cells were visualized in 10% methylene blue for 5 minutes. Three representative images from each well of the scratched areas under each condition were photographed to estimate the relative migration of cells at 0 and 12 h post-treatment. Data were analyzed using ImageJ software available online from the National Institutes of Health (rsbweb.nih.gov/ij/) by calculating the percentage of scratch closure at each dose point relative to control.

[3] = test system: NIH 3T3 murine fibroblast cell line; assay: Cytotoxicity, MTT assay in 3T3 fibroblasts; format: cell-based, mouse
Description: FIG. 9. Cell survival curves as measured by MTT assay for brassinosteroids 1-9 against the murine fibroblast cell line NIH-3T3. Cells were incubated with various concentrations of brassinosteroids (0.3-30 μM) for 24 h at 37° C. The mean absorbance of the control cells represented 100% cell proliferation, and the mean absorbance of treated cells was related to control values to determine sensitivity. Error bars represent standard error (n=6) from mean cell proliferation as determined by repeated experiments.
In various aspects, cell viability is measured and the effects of doses of compound and test reagents are tested in cell lines. In some aspects, cell viability was measured by the MTT (3-(4,5-Dimethylthiazol-2-yl)-2,5-diphenyltetrazolium bromide) assay in triplicate (Mosmann et al., J. Immunol. Methods 65:55-63, 1983) and quantified spectrophotometrically at 550 nm using a microplate reader (Molecular Devices, Sunnyvale, Calif.).
3T3 fibroblasts were seeded in a 96-well flat bottom plate at a density of 1×10^4 cells/well. Cell viability was measured by an MTT (3-(4,5-Dimethylthiazol-2-yl)-2,5-diphenyltetrazolium bromide) assay in triplicate (0.3-30 μM of test substance for […]) essentially as described by Mosmann (J. Immunol. Methods 65, 55-63, 1983) and quantified spectrophotometrically at 550 nm using a microplate reader (Molecular Devices, Sunnyvale, Calif.). […] For cell proliferation studies, cells were treated in triplicate with 0.1-10 μM of test substance for 24 h and assayed using a BrdU (5-bromo-2′-deoxyuridine) kit from Amersham (Uppsala, Sweden).

[4] = test system: L6 rat myotubes; assay: Protein synthesis, [3H]-phenylalanine incorporation in myotubes; format: cell-based; conditions: 10 μM; for Protein synthesis (% increase over control): 4 h
Description: In some aspects, cell culture experiments were carried out. Rat L6 skeletal muscle cell line CRL-1458 was obtained from ATCC (Manassas, Va.). Myoblasts were routinely maintained in Dulbecco's modified Eagle's medium (DMEM) containing 10% FBS and 0.1% penicillin-streptomycin at 37° C. and 5% CO2. Cells were subcultured into 24-well plates for protein synthesis, degradation, and cell viability studies and into 6-well plates for Western blot analyses (Greiner Bio One, Monroe, N.C.). Once cells reached 90% confluence, differentiation was induced by lowering the serum concentration to 2%, and medium was changed every 2 days. After 7-9 days of culture the myoblasts had fused into multinucleated myotubes (Mandel et al., Nature 251:618-620, 1974). NIH 3T3 murine embryonic fibroblast cell line (ATCC #CCL-92) was maintained in DMEM and 10% FBS at 37° C. in 5% CO2, and passaged every 3-4 days.
In various aspects, protein synthesis is measured to determine the effect of brassinosteroid on a particular protein. All known methods for measuring protein synthesis are included in the methods of the disclosure. In brassinosteroid dose response studies, fully differentiated myotubes were washed with serum-free DMEM and treated in triplicate with vehicle (0.1% ethanol), increasing concentrations of HB, or 6.5 nM of insulin-like growth factor-1 (IGF-1) as a positive control. Compounds were added to serum-free medium containing 0.5 μCi/mL [^3H]-phenylalanine and incubated for 4 h. For the HB time course study, fully differentiated myotubes were treated with 3 μM HB for 1-24 h using the same culture conditions. The incubation was stopped by placing cells on ice, discarding the medium, and washing the cells extensively with ice-cold PBS to remove the non-incorporated radiolabel. Proteins were precipitated with 5% trichloroacetic acid and dissolved in 0.5N NaOH (Montgomery et al., Methods Cell. Sci. 24:123-129, 2002). Specific radioactivity of protein-bound phenylalanine was quantified using liquid scintillation counter LS 6500 (Beckman Coulter, Fullerton, Calif.) and normalized to mg of total protein determined by BCA protein assay (Pierce Biotechnology, Rockford, Ill.).
The bioactivity of HB and its analogs was evaluated by measuring increases in protein synthesis in the L6 rat skeletal muscle cells in vitro. Cells were incubated for 4 h with [^3H]-phenylalanine and treated in triplicate with vehicle (0.1% ethanol) or test compound (10 μM), and protein synthesis was measured as incorporation of [^3H]-phenylalanine into protein normalized by total protein (Table 3). Under these conditions, both HB and (22S,23S)-homocastasterone increased protein synthesis by 37.2±5.9% (p<0.001) and 41.0±2.7% (p<0.001), respectively. This protein synthesis increase compared favorably to the biological activity of IGF-1 at 6.5 nM (42.5±4.5%, p<0.001) that served as a positive control in this assay. Removal of the 2α-hydroxyl group and fluorination at C-3 in the A ring (compound IDs 3-4 in Table 3) led to about a 50% decrease in bioactivity (24.6±5.3%, p<0.01 and 22.5±2.7%, p<0.01, respectively) compared to the positive control. However, there was still an increase in protein synthesis. […] Modifications in the side chain (compound IDs 7-9 in Table 3) abolished the activity.

[5] = test system: orchiectomized (ORX) Wistar rats; format: in vivo, rat; conditions: ORX rats, 0.4 mg/kg subcutaneous 10 d, positive control of oral study
Description: Protocol 3: Four-week-old sham-operated (sham, n=6) or orchiectomized (ORX, n=24) Wistar rats (Charles River Laboratories, MA) were subject to a 10-d Hershberger assay (surgically castrated peri-pubertal adult model) under the following experimental conditions: sham, ORX (vehicle), ORX (20 mg/kg HB orally), ORX (60 mg/kg HB orally), and ORX (0.4 mg/kg testosterone propionate subcutaneously, serving as a positive control for the assay). All procedures and measurements followed protocol 1, except no body composition measurements were taken. Limb grip strength was measured for control animals and animals receiving 60 mg/kg HB using a digital force gauge (Wagner Instruments model FDV5) by Product Safety Laboratories (Dayton, N.J.). After the rats were allowed to grip the screen with paws, the animals were quickly pulled until the paws released from the screen, and the required release force was recorded. Three trials on each animal were performed in triplicate, and significance was determined using Student's t test (p<0.05). In addition to the gastrocnemius muscle, androgen-sensitive tissues (ventral prostate, seminal vesicles, bulbocavernosus/levator ani muscle complex, glans penis, and Cowper's gland) were dissected out and weighed.
The muscle samples for histochemical analysis were taken from the middle section of the mixed-fiber gastrocnemius muscle of the castrated animals treated according to protocol 4 (described herein above) to allow for the observation of differences in fiber type distribution and cross-section area associated with ORX and HB treatments. Serial transverse cryosections (10 μm) were prepared from each muscle and were analyzed for myofibrillar adenosine triphosphatase (mATPase) histochemistry after alkaline (pH=9.5) preincubation. Fiber cross-section area and enzyme activity levels were determined from digitized images of the muscle cross-sections that were stored as gray-level pictures using ImageJ software (National Institutes of Health, Bethesda, Md.). […]

[6] = test system: orchiectomized (ORX) Wistar rats; assay: 10-d Hershberger assay in ORX rats, subcutaneous HB (Protocol 4); format: in vivo, rat; conditions: 0.4 mg/kg subcutaneous daily 10 d
Description: Protocol 4: Four-week-old sham-operated (sham, n=6) or orchiectomized (ORX, n=24) Wistar rats (Charles River Laboratories, MA) were subject to a 10-d Hershberger assay (surgically castrated peri-pubertal adult model) under the following experimental conditions: sham, ORX (vehicle), ORX (0.4 mg/kg HB subcutaneously), ORX (4 mg/kg HB subcutaneously), and ORX (0.4 mg/kg testosterone propionate subcutaneously, serving as a positive control for the assay). All procedures and measurements followed protocol 1. […]

CC[C@@H](C(C)C)[C@H](O)[C@@H](O)[C@@H](C)[C@H]1CC[C@H]2[C@@H]3COC(=O)[C@H]4C[C@H](F)CC[C@]4(C)[C@H]3CC[C@]12C [Compound 3, (22S,23S,24S)-3α-fluoro-22,23-dihydroxy-24-ethyl-B-homo-7-oxa-5α-cholestan-6-one]
Protein degradation (% decrease over control) [1]: −20.8 ± 0.5 % | Scratch wound closure at 5 μM, % of control [2]: 15.3 ± 2.6% | Wound Closure (% over control) [2]: 15.3 ± 2.6% | IC50 [3]: ~30 µM | cytotoxicity compared to the original brassinosteroids [3]: increased cytotoxicity | Protein synthesis (% increase over control) [4]: 24.6±5.3%

CC[C@@H](C(C)C)[C@H](O)[C@@H](O)[C@@H](C)[C@H]1CC[C@H]2[C@@H]3CNC(=O)[C@H]4C[C@H](O)[C@H](O)C[C@]4(C)[C@H]3CC[C@]12C [Compound 6, (22S,23S,24S)-2α,3α-22,23-tetrahydroxy-24-ethyl-B-homo-7-aza-5α-cholestan-6-one]
effect of structural modification on protein degradation activity, in words [1]: completely abolished its effect on protein degradation | Protein degradation (% decrease over control) [1]: −0.6 ± 2.9% | Scratch wound closure at 5 μM, % of control [2]: 30.5 ± 4.2 % | Wound Closure (% over control) [2]: 27.3 ± 3.6 % | concentration of highest scratch wound closure activity ([2]; 0.1-10 μM, 12 h (FIG. 17)): 3 µM | IC50 [3]: > 30 µM | effect of structural modification on activation of protein synthesis, in words [4]: reduced biological activity by half | Protein synthesis (% increase over control) [4]: 20.9 ± 2.4 %

CCC(=O)O[C@H]1CC[C@H]2[C@@H]3CCC4=CC(=O)CC[C@]4(C)[C@H]3CC[C@]12C [testosterone propionate, reference compound]
Bulbocavernosus/levator ani weight [5]: 382.0 ± 22.0 mg | Cowper's gland weight [5]: 34.5 ± 4.7 mg | Glans penis weight [5]: 93.8 ± 4.2 mg | Seminal vesicles weight [5]: 262.5 ± 12.5 mg | Ventral prostate weight [5]: 110.50 ± 9.5 mg | Bulbocavernosus/levator ani weight [6]: 293.8 ± 19.0 mg | Cowper's gland weight [6]: 34.3 ± 1.9 mg | Glans penis weight [6]: 72.3 ± 4.5 mg | Seminal vesicles weight [6]: 228.7 ± 35.3 mg | Ventral prostate weight [6]: 92.8 ± 6.3 mg
